Measured values: the supplement of paper PMC10307832

What was measured:
Assay in all cases: relative viability (nuclei count vs DMSO), 5 days (fraction); higher = more cells survive
[1] = compound: C1=CC2=NC=CN=C2C=C1/C=C/3\C(=O)NC(=O)S3 + Cc1cc(Nc2cc(N3CCN(C)CC3)nc(Sc3ccc(NC(=O)C4CC4)cc3)n2)n[nH]1 [Tozasertib] (partner 0.1 µM)
Method in brief: (§1)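 The day after seeding in 1536-well plates, lung cancer cell lines were treated by pin tool with a single drug, or with a fixed anchor-drug dose together with five library-drug doses (not always all listed) in √10 steps. After 5 days, a combined fix-and-stain solution (final 0.05% Triton X-100, 1% formaldehyde, 1 ug/ml Hoechst) was added. Nuclei counted on 4× images gave relative viability as treated counts over vehicle counts, reported as the median of duplicate plates.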

BGJ398 + Palbociclib = compound: CCN1CCN(c2ccc(Nc3cc(N(C)C(=O)Nc4c(Cl)c(OC)cc(OC)c4Cl)ncn3)cc2)CC1 [BGJ398] + CC(=O)c1c(C)c2cnc(Nc3ccc(N4CCNCC4)cn3)nc2n(C2CCCC2)c1=O [Palbociclib] (partner 0.5 µM)
Method in brief: as §1

BGJ398 + Navitoclax = compound: CCN1CCN(c2ccc(Nc3cc(N(C)C(=O)Nc4c(Cl)c(OC)cc(OC)c4Cl)ncn3)cc2)CC1 [BGJ398] + CC1(C)CCC(c2ccc(Cl)cc2)=C(CN2CCN(c3ccc(C(=O)NS(=O)(=O)c4ccc(N[C@H](CCN5CCOCC5)CSc5ccccc5)c(S(=O)(=O)C(F)(F)F)c4)cc3)CC2)C1 [Navitoclax] (partner 0.5 µM)
Method in brief: as §1

BGJ398 + Linsitinib = compound: CCN1CCN(c2ccc(Nc3cc(N(C)C(=O)Nc4c(Cl)c(OC)cc(OC)c4Cl)ncn3)cc2)CC1 [BGJ398] + C[C@]1(O)C[C@@H](c2nc(-c3ccc4ccc(-c5ccccc5)nc4c3)c3c(N)nccn32)C1 [Linsitinib] (partner 1 µM)
Method in brief: as §1

NCI-H1650
relative viability ([1]; first compound 0.02 µM): 0.434 | relative viability ([1]; first compound 0.06325 µM): 0.446 | relative viability ([1]; first compound 0.2 µM): 0.459 | relative viability ([1]; first compound 0.6325 µM): 0.375 | relative viability ([1]; first compound 2 µM): 0.411 | relative viability (BGJ398 + Palbociclib; first compound 0.01 µM): 0.298 | relative viability (BGJ398 + Palbociclib; first compound 0.03162 µM): 0.375 | relative viability (BGJ398 + Palbociclib; first compound 0.1 µM): 0.28 | relative viability (BGJ398 + Palbociclib; first compound 0.3162 µM): 0.182 | relative viability (BGJ398 + Palbociclib; first compound 1 µM): 0.249 | relative viability (BGJ398 + Navitoclax; first compound 0.01 µM): 0.859 | relative viability (BGJ398 + Navitoclax; first compound 0.03162 µM): 1.04 | relative viability (BGJ398 + Navitoclax; first compound 0.1 µM): 0.649 | relative viability (BGJ398 + Navitoclax; first compound 0.3162 µM): 0.699 | relative viability (BGJ398 + Navitoclax; first compound 1 µM): 0.817

NCI-H1648
relative viability ([1]; first compound 0.02 µM): 0.408 | relative viability ([1]; first compound 0.2 µM): 0.629 | relative viability ([1]; first compound 0.6325 µM): 0.404 | relative viability ([1]; first compound 2 µM): 0.416 | relative viability (BGJ398 + Palbociclib; first compound 0.01 µM): 0.266 | relative viability (BGJ398 + Palbociclib; first compound 0.1 µM): 0.256 | relative viability (BGJ398 + Palbociclib; first compound 0.3162 µM): 0.273 | relative viability (BGJ398 + Palbociclib; first compound 1 µM): 0.227

NCI-H596
relative viability ([1]; first compound 0.02 µM): 0.934 | relative viability ([1]; first compound 0.06325 µM): 0.951 | relative viability ([1]; first compound 0.2 µM): 1.1 | relative viability ([1]; first compound 0.6325 µM): 0.733 | relative viability ([1]; first compound 2 µM): 0.902 | relative viability (BGJ398 + Navitoclax; first compound 0.01 µM): 0.96 | relative viability (BGJ398 + Navitoclax; first compound 0.03162 µM): 0.645 | relative viability (BGJ398 + Navitoclax; first compound 0.1 µM): 0.698 | relative viability (BGJ398 + Navitoclax; first compound 0.3162 µM): 0.73 | relative viability (BGJ398 + Navitoclax; first compound 1 µM): 0.614 | relative viability (BGJ398 + Linsitinib; first compound 0.01 µM): 0.864 | relative viability (BGJ398 + Linsitinib; first compound 0.03162 µM): 1 | relative viability (BGJ398 + Linsitinib; first compound 0.1 µM): 1.12 | relative viability (BGJ398 + Linsitinib; first compound 0.3162 µM): 0.957 | relative viability (BGJ398 + Linsitinib; first compound 1 µM): 0.942

NCI-H2342
relative viability ([1]; first compound 0.02 µM): 0.438 | relative viability ([1]; first compound 0.06325 µM): 0.561 | relative viability ([1]; first compound 0.2 µM): 0.688 | relative viability ([1]; first compound 0.6325 µM): 0.465 | relative viability ([1]; first compound 2 µM): 0.469 | relative viability (BGJ398 + Palbociclib; first compound 0.01 µM): 0.523 | relative viability (BGJ398 + Palbociclib; first compound 0.03162 µM): 0.529 | relative viability (BGJ398 + Palbociclib; first compound 0.1 µM): 0.513 | relative viability (BGJ398 + Palbociclib; first compound 0.3162 µM): 0.666 | relative viability (BGJ398 + Palbociclib; first compound 1 µM): 0.611

SW 900
relative viability ([1]; first compound 0.02 µM): 0.453 | relative viability ([1]; first compound 0.06325 µM): 0.607 | relative viability ([1]; first compound 0.2 µM): 0.702 | relative viability ([1]; first compound 0.6325 µM): 0.545 | relative viability ([1]; first compound 2 µM): 0.566 | relative viability (BGJ398 + Palbociclib; first compound 0.01 µM): 0.52 | relative viability (BGJ398 + Palbociclib; first compound 0.03162 µM): 0.528 | relative viability (BGJ398 + Palbociclib; first compound 0.1 µM): 0.534 | relative viability (BGJ398 + Palbociclib; first compound 0.3162 µM): 0.453 | relative viability (BGJ398 + Palbociclib; first compound 1 µM): 0.528

A549
relative viability (BGJ398 + Navitoclax; first compound 0.01 µM): 1.14 | relative viability (BGJ398 + Navitoclax; first compound 0.03162 µM): 1.18 | relative viability (BGJ398 + Navitoclax; first compound 0.1 µM): 1.23 | relative viability (BGJ398 + Navitoclax; first compound 0.3162 µM): 1.21 | relative viability (BGJ398 + Navitoclax; first compound 1 µM): 1.13 | relative viability (BGJ398 + Linsitinib; first compound 0.01 µM): 0.637 | relative viability (BGJ398 + Linsitinib; first compound 0.03162 µM): 0.53 | relative viability (BGJ398 + Linsitinib; first compound 0.1 µM): 0.857 | relative viability (BGJ398 + Linsitinib; first compound 0.3162 µM): 0.569 | relative viability (BGJ398 + Linsitinib; first compound 1 µM): 0.658

NCI-H2170
relative viability ([1]; first compound 0.02 µM): 0.6 | relative viability ([1]; first compound 0.06325 µM): 0.697 | relative viability ([1]; first compound 0.2 µM): 0.689 | relative viability ([1]; first compound 0.6325 µM): 0.734 | relative viability ([1]; first compound 2 µM): 0.795 | relative viability (BGJ398 + Palbociclib; first compound 0.01 µM): 0.426 | relative viability (BGJ398 + Palbociclib; first compound 0.03162 µM): 0.389 | relative viability (BGJ398 + Palbociclib; first compound 0.1 µM): 0.416 | relative viability (BGJ398 + Palbociclib; first compound 0.3162 µM): 0.427 | relative viability (BGJ398 + Palbociclib; first compound 1 µM): 0.39 | relative viability (BGJ398 + Navitoclax; first compound 0.01 µM): 0.505 | relative viability (BGJ398 + Navitoclax; first compound 0.03162 µM): 0.572 | relative viability (BGJ398 + Navitoclax; first compound 0.1 µM): 0.586 | relative viability (BGJ398 + Navitoclax; first compound 0.3162 µM): 0.671 | relative viability (BGJ398 + Navitoclax; first compound 1 µM): 0.765

NCI-H661
relative viability ([1]; first compound 0.02 µM): 0.389 | relative viability ([1]; first compound 0.06325 µM): 0.368 | relative viability ([1]; first compound 0.2 µM): 0.352 | relative viability ([1]; first compound 0.6325 µM): 0.335 | relative viability ([1]; first compound 2 µM): 0.374 | relative viability (BGJ398 + Palbociclib; first compound 0.01 µM): 0.422 | relative viability (BGJ398 + Palbociclib; first compound 0.03162 µM): 0.406 | relative viability (BGJ398 + Palbociclib; first compound 0.1 µM): 0.384 | relative viability (BGJ398 + Palbociclib; first compound 0.3162 µM): 0.4 | relative viability (BGJ398 + Palbociclib; first compound 1 µM): 0.398 | relative viability (BGJ398 + Linsitinib; first compound 0.01 µM): 0.531 | relative viability (BGJ398 + Linsitinib; first compound 0.03162 µM): 0.77 | relative viability (BGJ398 + Linsitinib; first compound 0.1 µM): 0.644 | relative viability (BGJ398 + Linsitinib; first compound 0.3162 µM): 0.678 | relative viability (BGJ398 + Linsitinib; first compound 1 µM): 0.548

NCI-H1563
relative viability (BGJ398 + Linsitinib; first compound 0.01 µM): 1.17 | relative viability (BGJ398 + Linsitinib; first compound 0.03162 µM): 1.18 | relative viability (BGJ398 + Linsitinib; first compound 0.1 µM): 0.947 | relative viability (BGJ398 + Linsitinib; first compound 0.3162 µM): 0.792 | relative viability (BGJ398 + Linsitinib; first compound 1 µM): 0.724

ABC-1
relative viability ([1]; first compound 0.02 µM): 0.175 | relative viability ([1]; first compound 0.06325 µM): 0.217 | relative viability ([1]; first compound 0.2 µM): 0.193 | relative viability ([1]; first compound 0.6325 µM): 0.165 | relative viability ([1]; first compound 2 µM): 0.179 | relative viability (BGJ398 + Palbociclib; first compound 0.01 µM): 0.647 | relative viability (BGJ398 + Palbociclib; first compound 0.03162 µM): 0.593 | relative viability (BGJ398 + Palbociclib; first compound 0.1 µM): 0.584 | relative viability (BGJ398 + Palbociclib; first compound 1 µM): 0.945 | relative viability (BGJ398 + Linsitinib; first compound 0.01 µM): 0.685 | relative viability (BGJ398 + Linsitinib; first compound 0.03162 µM): 1.01 | relative viability (BGJ398 + Linsitinib; first compound 0.1 µM): 0.746 | relative viability (BGJ398 + Linsitinib; first compound 0.3162 µM): 0.999 | relative viability (BGJ398 + Linsitinib; first compound 1 µM): 0.658

LCLC-103H
relative viability ([1]; first compound 0.02 µM): 0.563 | relative viability ([1]; first compound 0.06325 µM): 0.424 | relative viability ([1]; first compound 0.2 µM): 0.45 | relative viability ([1]; first compound 0.6325 µM): 0.52 | relative viability ([1]; first compound 2 µM): 0.456 | relative viability (BGJ398 + Palbociclib; first compound 0.01 µM): 0.42 | relative viability (BGJ398 + Palbociclib; first compound 0.03162 µM): 0.497 | relative viability (BGJ398 + Palbociclib; first compound 0.1 µM): 0.457 | relative viability (BGJ398 + Palbociclib; first compound 0.3162 µM): 0.478 | relative viability (BGJ398 + Palbociclib; first compound 1 µM): 0.518 | relative viability (BGJ398 + Linsitinib; first compound 0.01 µM): 1.05 | relative viability (BGJ398 + Linsitinib; first compound 0.03162 µM): 1.15 | relative viability (BGJ398 + Linsitinib; first compound 0.1 µM): 1.07 | relative viability (BGJ398 + Linsitinib; first compound 0.3162 µM): 1.02 | relative viability (BGJ398 + Linsitinib; first compound 1 µM): 1.1
